{
  "source": "patent US10695311B2",
  "about": "“Solution for ophthalmology” (priority 2016, dated 2020)",
  "key": {"[1]": {"test_system": "zonula fibers and posterior capsule of donor eyes", "assay": "Experiments on donor eyes", "details": "the corneas of which were used for cornea transfers, L-lysine in the concentration indicated above (0.5-3.5 wt.-%)", "description": "(§1) The surgical result is therefore permanent; further procedures for treatment of possible capsule fibrosis are rarely or never necessary. The solution according to the invention can be used with every phacoemulsification, with or without lens implantation, to clean the posterior capsule. In this regard, the solution according to the invention can be produced from commercially available L-lysine. In particular, the solution can be present as a flushing solution."}, "[2]": {"test_system": "lens capsule", "assay": "Surgical studies within the scope of extracapsular procedures", "format": "in vivo", "details": "L-lysine concentrations of up to 5%", "description": "as §1\nWhen performing the extracapsular operation, it has proven to be practical to apply 1 to 5 ml of the L-lysine according to the invention to the posterior capsule after removal of the cloudy lens core and the subcapsular cortex layer (Cortex lentis), using an anterior-chamber cannula. After a sufficient period of action, the solution is suctioned away and rinsed off. In this regard, the period of action is primarily dependent on the concentration of the solution. For a solution with a concentration of 2 wt.-%, it lies between 30 s and 5 min, preferably at approximately 1 min. The period of action should not amount to more than 5 min, preferably not more than 3 min."}, "[3]": {"test_system": "lens capsule and hemidesmosomes", "assay": "Studies by the inventor with lysine solutions (lens capsule / hemidesmosomes)", "details": "lysine solutions having a lower concentration"}},
  "data": [
    {"smiles": "NCCCC[C@H](N)C(=O)O", "note": "[L-lysine]", "values": [
      {"measurement": "attack on zonula fibers and posterior capsule", "setting": "[1]", "result": "neither the zonula fibers nor the posterior capsule are attacked"},
      {"measurement": "integrity of lens capsule during and after the procedure", "setting": "[2]", "result": "the lens capsule remained intact during and after the procedure"},
      {"measurement": "prevention of capsule fibrosis after the procedures", "setting": "[2]", "result": "it was possible to prevent capsule fibrosis after the procedures"},
      {"measurement": "damage to the lens capsule", "setting": "[3]", "result": "damage to the lens capsule does not occur"},
      {"measurement": "digestion of the hemidesmosomes", "setting": "[3]", "result": "digestion of the hemidesmosomes still takes place to a sufficient extent"}
    ]}
  ]
}
